{"source": "paper PMC12102759", "about": "(Protein Science : A Publication of the Protein Society, 2025)", "data": [{"tested_on": "G3BP1 NFT2", "type": "binding, human", "conditions": "library DMS-BM; bait G3BP1 NFT2; prey CAPRIN1; AQMQGPYNFIQDSM(averaged): mean of the two overlapping peptides over the shared positions", "values": [{"substance": "AQMQGPYNFIQDSM(averaged) S13M (AQMQGPYNFIQDMM)", "DMS position-specific score (PSSM value) per amino-acid substitution, averaged": 0}, {"substance": "AQMQGPYNFIQDSM(averaged) M3Y (AQYQGPYNFIQDSM)", "DMS position-specific score (PSSM value) per amino-acid substitution, averaged": 0.01355}, {"substance": "AQMQGPYNFIQDSM(averaged) M14A (AQMQGPYNFIQDSA)", "DMS position-specific score (PSSM value) per amino-acid substitution, averaged": 0.06493}, {"substance": "AQMQGPYNFIQDSM(averaged) G5W (AQMQWPYNFIQDSM)", "DMS position-specific score (PSSM value) per amino-acid substitution, averaged": 0.033}, {"substance": "AQMQGPYNFIQDSM(averaged) Q4I (AQMIGPYNFIQDSM)", "DMS position-specific score (PSSM value) per amino-acid substitution, averaged": 0.04808}, {"substance": "AQMQGPYNFIQDSM(averaged) I10R (AQMQGPYNFRQDSM)", "DMS position-specific score (PSSM value) per amino-acid substitution, averaged": 0.001261}, {"substance": "AQMQGPYNFIQDSM(averaged) S13A (AQMQGPYNFIQDAM)", "DMS position-specific score (PSSM value) per amino-acid substitution, averaged": 0.1575}, {"substance": "AQMQGPYNFIQDSM(averaged) A1L (LQMQGPYNFIQDSM)", "DMS position-specific score (PSSM value) per amino-acid substitution, averaged": 0.06855}, {"substance": "AQMQGPYNFIQDSM(averaged) S13L (AQMQGPYNFIQDLM)", "DMS position-specific score (PSSM value) per amino-acid substitution, averaged": 0.0002731}, {"substance": "AQMQGPYNFIQDSM(averaged) D12T (AQMQGPYNFIQTSM)", "DMS position-specific score (PSSM value) per amino-acid substitution, averaged": 0.005851}, {"substance": "AQMQGPYNFIQDSM(averaged) F9N (AQMQGPYNNIQDSM)", "DMS position-specific score (PSSM value) per amino-acid substitution, averaged": 0}, {"substance": "AQMQGPYNFIQDSM(averaged) G5N (AQMQNPYNFIQDSM)", "DMS position-specific score (PSSM value) per amino-acid substitution, averaged": 0.002472}, {"substance": "AQMQGPYNFIQDSM(averaged) Y7L (AQMQGPLNFIQDSM)", "DMS position-specific score (PSSM value) per amino-acid substitution, averaged": 0.1143}, {"substance": "AQMQGPYNFIQDSM(averaged) Q2P (APMQGPYNFIQDSM)", "DMS position-specific score (PSSM value) per amino-acid substitution, averaged": 0.007875}, {"substance": "AQMQGPYNFIQDSM(averaged) I10P (AQMQGPYNFPQDSM)", "DMS position-specific score (PSSM value) per amino-acid substitution, averaged": 0}, {"substance": "AQMQGPYNFIQDSM(averaged) A1E (EQMQGPYNFIQDSM)", "DMS position-specific score (PSSM value) per amino-acid substitution, averaged": 0.1606}, {"substance": "AQMQGPYNFIQDSM(averaged) Q4G (AQMGGPYNFIQDSM)", "DMS position-specific score (PSSM value) per amino-acid substitution, averaged": 0.08843}, {"substance": "AQMQGPYNFIQDSM(averaged) A1F (FQMQGPYNFIQDSM)", "DMS position-specific score (PSSM value) per amino-acid substitution, averaged": 0.03963}, {"substance": "AQMQGPYNFIQDSM(averaged) P6G (AQMQGGYNFIQDSM)", "DMS position-specific score (PSSM value) per amino-acid substitution, averaged": 0.006371}, {"substance": "AQMQGPYNFIQDSM(averaged) P6A (AQMQGAYNFIQDSM)", "DMS position-specific score (PSSM value) per amino-acid substitution, averaged": 0.08584}, {"substance": "AQMQGPYNFIQDSM(averaged) Q4S (AQMSGPYNFIQDSM)", "DMS position-specific score (PSSM value) per amino-acid substitution, averaged": 0.003246}, {"substance": "AQMQGPYNFIQDSM(averaged) M14H (AQMQGPYNFIQDSH)", "DMS position-specific score (PSSM value) per amino-acid substitution, averaged": 0.004419}, {"substance": "AQMQGPYNFIQDSM(averaged) A1I (IQMQGPYNFIQDSM)", "DMS position-specific score (PSSM value) per amino-acid substitution, averaged": 0.00266}, {"substance": "AQMQGPYNFIQDSM(averaged) F9A (AQMQGPYNAIQDSM)", "DMS position-specific score (PSSM value) per amino-acid substitution, averaged": 0}, {"substance": "AQMQGPYNFIQDSM(averaged) M3Q (AQQQGPYNFIQDSM)", "DMS position-specific score (PSSM value) per amino-acid substitution, averaged": 0.0638}, {"substance": "AQMQGPYNFIQDSM(averaged) M14F (AQMQGPYNFIQDSF)", "DMS position-specific score (PSSM value) per amino-acid substitution, averaged": 0.1772}, {"substance": "AQMQGPYNFIQDSM(averaged) P6K (AQMQGKYNFIQDSM)", "DMS position-specific score (PSSM value) per amino-acid substitution, averaged": 0.01016}, {"substance": "AQMQGPYNFIQDSM(averaged) N8R (AQMQGPYRFIQDSM)", "DMS position-specific score (PSSM value) per amino-acid substitution, averaged": 0.00733}, {"substance": "AQMQGPYNFIQDSM(averaged) M14S (AQMQGPYNFIQDSS)", "DMS position-specific score (PSSM value) per amino-acid substitution, averaged": 0.001956}, {"substance": "AQMQGPYNFIQDSM(averaged) I10I", "DMS position-specific score (PSSM value) per amino-acid substitution, averaged": 0.4804}, {"substance": "AQMQGPYNFIQDSM(averaged) F9S (AQMQGPYNSIQDSM)", "DMS position-specific score (PSSM value) per amino-acid substitution, averaged": 0}, {"substance": "AQMQGPYNFIQDSM(averaged) I10S (AQMQGPYNFSQDSM)", "DMS position-specific score (PSSM value) per amino-acid substitution, averaged": 0.0008082}, {"substance": "AQMQGPYNFIQDSM(averaged) G5L (AQMQLPYNFIQDSM)", "DMS position-specific score (PSSM value) per amino-acid substitution, averaged": 0.1936}, {"substance": "AQMQGPYNFIQDSM(averaged) Q2W (AWMQGPYNFIQDSM)", "DMS position-specific score (PSSM value) per amino-acid substitution, averaged": 0.05769}, {"substance": "AQMQGPYNFIQDSM(averaged) P6V (AQMQGVYNFIQDSM)", "DMS position-specific score (PSSM value) per amino-acid substitution, averaged": 0.006564}, {"substance": "AQMQGPYNFIQDSM(averaged) N8T (AQMQGPYTFIQDSM)", "DMS position-specific score (PSSM value) per amino-acid substitution, averaged": 0.1728}, {"substance": "AQMQGPYNFIQDSM(averaged) Y7A (AQMQGPANFIQDSM)", "DMS position-specific score (PSSM value) per amino-acid substitution, averaged": 0}, {"substance": "AQMQGPYNFIQDSM(averaged) F9G (AQMQGPYNGIQDSM)", "DMS position-specific score (PSSM value) per amino-acid substitution, averaged": 0.0001993}, {"substance": "AQMQGPYNFIQDSM(averaged) M3P (AQPQGPYNFIQDSM)", "DMS position-specific score (PSSM value) per amino-acid substitution, averaged": 0.0009459}, {"substance": "AQMQGPYNFIQDSM(averaged) S13D (AQMQGPYNFIQDDM)", "DMS position-specific score (PSSM value) per amino-acid substitution, averaged": 0.02096}, {"substance": "AQMQGPYNFIQDSM(averaged) G5E (AQMQEPYNFIQDSM)", "DMS position-specific score (PSSM value) per amino-acid substitution, averaged": 0.000605}, {"substance": "AQMQGPYNFIQDSM(averaged) M14W (AQMQGPYNFIQDSW)", "DMS position-specific score (PSSM value) per amino-acid substitution, averaged": 0.06336}, {"substance": "AQMQGPYNFIQDSM(averaged) I10F (AQMQGPYNFFQDSM)", "DMS position-specific score (PSSM value) per amino-acid substitution, averaged": 0.1045}, {"substance": "AQMQGPYNFIQDSM(averaged) Q4Q", "DMS position-specific score (PSSM value) per amino-acid substitution, averaged": 0.2404}, {"substance": "AQMQGPYNFIQDSM(averaged) D12Q (AQMQGPYNFIQQSM)", "DMS position-specific score (PSSM value) per amino-acid substitution, averaged": 0.008788}, {"substance": "AQMQGPYNFIQDSM(averaged) Q11G (AQMQGPYNFIGDSM)", "DMS position-specific score (PSSM value) per amino-acid substitution, averaged": 0.1489}, {"substance": "AQMQGPYNFIQDSM(averaged) N8N", "DMS position-specific score (PSSM value) per amino-acid substitution, averaged": 0.08785}, {"substance": "AQMQGPYNFIQDSM(averaged) P6W (AQMQGWYNFIQDSM)", "DMS position-specific score (PSSM value) per amino-acid substitution, averaged": 0.02305}, {"substance": "AQMQGPYNFIQDSM(averaged) D12L (AQMQGPYNFIQLSM)", "DMS position-specific score (PSSM value) per amino-acid substitution, averaged": 0.008174}, {"substance": "AQMQGPYNFIQDSM(averaged) I10D (AQMQGPYNFDQDSM)", "DMS position-specific score (PSSM value) per amino-acid substitution, averaged": 0}, {"substance": "AQMQGPYNFIQDSM(averaged) D12I (AQMQGPYNFIQISM)", "DMS position-specific score (PSSM value) per amino-acid substitution, averaged": 0.0003022}, {"substance": "AQMQGPYNFIQDSM(averaged) P6R (AQMQGRYNFIQDSM)", "DMS position-specific score (PSSM value) per amino-acid substitution, averaged": 0.01834}]}]}
